Activity calls are given as the source filed them.
What was measured:
[1] = molecular target: T1, Disintegrin and metalloproteinase domain-containing protein 17 (Homo sapiens, UniProt P78536); test: inhibition of ADAM17 substrate cleavage – biochemical, quenched FRET substrate, counter-screen for ADAM10 exosite inhibitor project, dose response (AID 743253)
[2] = molecular target: NAD-dependent protein deacylase sirtuin-5, mitochondrial (Homo sapiens, UniProt Q9NXA8); test: sirtuin-5 deacylation blockers, concentration series – biochemical, fluorescence imaging, cherry-pick, set 5, dose response (AID 720591);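 note: desuccinylation of succinyl peptide AMC substrate read as fluorescence after trypsin release; potency of inhibitors that lower fluorescence and may act on trypsin instead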
[3] = potency of ADAM10 substrate cleavage blockers – biochemical, QFRET, dose response (AID 743254);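 note: ADAM10 enzyme with the DM2 quenched FRET peptide as substrate; EDANS fluorescence gain as the protease cuts the substrate; inhibitor potency against ADAM10 proteolytic activity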
[4] = molecular target: T1, Disintegrin and metalloproteinase domain-containing protein 17; test: exosite inhibitors of ADAM17, dose response, biochemical (AID 743260)
[5] = inhibition of ADAM10 peptide cleavage – biochemical, FRET peptide substrate, recombinant human ADAM10, selectivity assay for ADAM17 exosite inhibitor project, dose response (AID 743259);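 note: ADAM10 enzyme cleaving a FRET peptide substrate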
[6] = molecular target: T2, Fructose-bisphosphate aldolase (Mycobacterium tuberculosis, UniProt P9WQA3); test: Fluorescence-based biochemical high throughput dose response assay for inhibitors of the fructose-bisphosphate aldolase (FBA) of M. tuberculosis.; type: functional
T2 sequence (P9WQA3 whole entry): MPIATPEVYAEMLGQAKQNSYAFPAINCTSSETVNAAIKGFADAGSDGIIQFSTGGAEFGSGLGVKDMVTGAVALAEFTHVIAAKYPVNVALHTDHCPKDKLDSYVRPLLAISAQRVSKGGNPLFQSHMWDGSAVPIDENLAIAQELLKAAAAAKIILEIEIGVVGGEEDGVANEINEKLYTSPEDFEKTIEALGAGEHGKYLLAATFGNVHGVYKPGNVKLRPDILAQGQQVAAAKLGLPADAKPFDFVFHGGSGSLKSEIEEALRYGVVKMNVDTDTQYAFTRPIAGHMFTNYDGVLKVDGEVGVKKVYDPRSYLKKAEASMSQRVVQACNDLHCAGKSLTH

[7] = molecular target: T3, Zinc finger protein mex-5 (Caenorhabditis elegans, UniProt Q9XUB2); test: potency of MEX-5 RNA-binding blockers – biochemical, C. elegans, fluorescence polarization, dose response (AID 1960)
T3 sequence (Q9XUB2 whole entry): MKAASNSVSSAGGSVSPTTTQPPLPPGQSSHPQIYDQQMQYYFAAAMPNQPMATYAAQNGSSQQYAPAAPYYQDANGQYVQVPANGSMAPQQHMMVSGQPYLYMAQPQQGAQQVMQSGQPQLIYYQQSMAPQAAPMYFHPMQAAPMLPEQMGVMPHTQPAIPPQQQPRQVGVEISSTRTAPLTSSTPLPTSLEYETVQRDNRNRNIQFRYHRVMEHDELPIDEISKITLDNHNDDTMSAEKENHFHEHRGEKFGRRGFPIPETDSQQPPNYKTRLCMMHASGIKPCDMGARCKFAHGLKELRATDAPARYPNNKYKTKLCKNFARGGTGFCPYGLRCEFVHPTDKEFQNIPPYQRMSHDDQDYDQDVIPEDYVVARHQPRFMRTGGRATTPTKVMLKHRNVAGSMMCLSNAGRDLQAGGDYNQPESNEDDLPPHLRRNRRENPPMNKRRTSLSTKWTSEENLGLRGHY

[8] = molecular target: T4, RNA-binding protein pos-1 (Caenorhabditis elegans, UniProt G5EF15); test: disruptors of C. elegans POS-1 RNA interaction – biochemical, fluorescence polarization, dose response (AID 1964);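 note: purified POS-1 fused to maltose binding protein made in E. coli; potency of compounds blocking POS-1 binding to fluorescent RNA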
T4 sequence (G5EF15 whole entry): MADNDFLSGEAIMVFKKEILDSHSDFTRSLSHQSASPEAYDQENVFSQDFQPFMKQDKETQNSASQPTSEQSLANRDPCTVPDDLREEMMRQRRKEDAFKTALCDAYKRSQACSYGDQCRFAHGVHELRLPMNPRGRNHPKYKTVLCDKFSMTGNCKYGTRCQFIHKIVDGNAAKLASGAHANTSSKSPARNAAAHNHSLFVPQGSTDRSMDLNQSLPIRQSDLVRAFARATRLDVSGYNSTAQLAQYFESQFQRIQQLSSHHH

[9] = molecular target: T5, Probable nicotinate-nucleotide adenylyltransferase (Staphylococcus aureus (strain N315), UniProt P65502); type: functional, Staphylococcus aureus subsp. aureus N315; conditions: read-out: IC50_Mean;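 for IC50 Mean: confirmatory dose-response retesting of NadD inhibitor hits first found in an ultra-high-throughput screen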
[10] = molecular target: T5, Probable nicotinate-nucleotide adenylyltransferase; type: functional, Staphylococcus aureus subsp. aureus N315
Vero = test: viability of Vero cells under compound – cytotoxicity control for flavivirus capping enzyme inhibitors (AID 588742); type: functional; conditions: Chlorocebus sabaeus
[11] = molecular target: Heat shock protein HSP 90-alpha (Homo sapiens, UniProt P07900); type: functional, organism-based
[12] = molecular target: T6, COUP transcription factor 2 (Homo sapiens, UniProt P24468); test: Luminescence-based cell-based high throughput dose response assay to identify inhibitors of COUP-TFII (NR2F2).; type: functional;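 note: HEK293 cells transiently cotransfected with COUP-TFII expression vector and reporter; luciferase reporter luminescence driven by COUP-TFII from the pX2-168 reporter plasmid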
T6 sequence (P24468 whole entry): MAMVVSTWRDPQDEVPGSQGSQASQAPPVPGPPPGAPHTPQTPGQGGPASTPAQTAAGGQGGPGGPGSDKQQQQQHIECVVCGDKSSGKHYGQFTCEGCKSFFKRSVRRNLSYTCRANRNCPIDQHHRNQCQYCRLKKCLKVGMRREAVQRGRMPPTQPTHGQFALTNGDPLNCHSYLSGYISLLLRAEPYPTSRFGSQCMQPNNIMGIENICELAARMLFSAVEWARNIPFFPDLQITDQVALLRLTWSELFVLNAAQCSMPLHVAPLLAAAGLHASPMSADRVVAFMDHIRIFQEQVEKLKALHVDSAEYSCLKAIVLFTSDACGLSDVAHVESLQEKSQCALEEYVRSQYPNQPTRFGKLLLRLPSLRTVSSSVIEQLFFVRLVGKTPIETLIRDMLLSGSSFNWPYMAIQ

[13] = Dd2 parasite growth inhibition in erythrocytes – SYBR Green, dry powder samples, set 9, dose response (AID 1159568); type: functional, cell-based
[14] = Luminescence Cell-Based Dose Retest to Confirm Inhibitors of Cancer Stem Cells. [Related pubchem assays (depositor defined):AID2717, AID2721]; type: functional; conditions: Homo sapiens
Beta-lactamase [15] = molecular target: T7, Beta-lactamase (Pseudomonas aeruginosa, UniProt Q79MP6); test: […] counterscreen for selective VIM-2 inhibitors: dose response biochemical high throughput screening assay to identify inhibitors of IMP-1 metallo-beta-lactamase.
Streptokinase A = molecular target: T8, Streptokinase A (Streptococcus pyogenes serotype M1, UniProt P10520); test: viability-normalized secreted streptokinase activity reduction – plasminogen activation absorbance, OD405, dose response (AID 1914); type: functional, Streptococcus pyogenes M1 GAS;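 note: secreted streptokinase activity via plasminogen activation per viability signal from cell pellet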
T8 sequence (P10520 whole entry): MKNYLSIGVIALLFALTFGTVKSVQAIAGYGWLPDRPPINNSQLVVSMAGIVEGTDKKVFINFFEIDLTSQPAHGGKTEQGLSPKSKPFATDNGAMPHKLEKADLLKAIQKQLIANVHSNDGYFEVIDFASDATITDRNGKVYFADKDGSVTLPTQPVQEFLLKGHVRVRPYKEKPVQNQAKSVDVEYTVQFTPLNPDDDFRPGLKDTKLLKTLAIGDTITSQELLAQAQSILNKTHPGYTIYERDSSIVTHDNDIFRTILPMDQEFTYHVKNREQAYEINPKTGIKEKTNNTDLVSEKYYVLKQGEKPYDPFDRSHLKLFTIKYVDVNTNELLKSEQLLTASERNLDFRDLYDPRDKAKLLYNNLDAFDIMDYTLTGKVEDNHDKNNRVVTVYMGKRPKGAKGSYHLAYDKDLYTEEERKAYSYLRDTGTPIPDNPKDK

Beta-lactamase [16] = molecular target: T7, Beta-lactamase; test: inhibition of IMP-1 beta-lactamase activity – biochemical, epi-absorbance, selectivity assay for VIM-2 inhibitor project, dose response (AID 1920)
Beta-lactamase [17] = molecular target: Beta-lactamase (Salmonella choleraesuis (strain SC-B67), UniProt Q5J463); test: Epi-absorbance-based counterscreen for selective VIM-2 inhibitors: dose response biochemical high throughput screening assay to identify inhibitors of TEM-1 serine-beta-lactamase.
[18] = test system: Streptococcus sp. 'group A'; test: Streptococcus pyogenes SK(-)GAS viability under kanamycin – luminescence, BacTiterGlo, confirmation, counter-screen for streptokinase expression inhibitor project, dose response (AID 1900); type: functional, organism-based
Streptococcus = test: GAS UMAA2166 growth inhibition – luminescence, BacTiterGlo, counter-screen for streptokinase expression inhibitor project, dose response (AID 1915); type: functional, organism-based;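 note: potency for reduction of bacterial viability or growth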
fMet-Leu-Phe receptor = molecular target: T9, fMet-Leu-Phe receptor (Homo sapiens, UniProt P21462); test: formyl peptide receptor binders – dose response (AID 519); type: functional
T9 sequence (P21462 whole entry): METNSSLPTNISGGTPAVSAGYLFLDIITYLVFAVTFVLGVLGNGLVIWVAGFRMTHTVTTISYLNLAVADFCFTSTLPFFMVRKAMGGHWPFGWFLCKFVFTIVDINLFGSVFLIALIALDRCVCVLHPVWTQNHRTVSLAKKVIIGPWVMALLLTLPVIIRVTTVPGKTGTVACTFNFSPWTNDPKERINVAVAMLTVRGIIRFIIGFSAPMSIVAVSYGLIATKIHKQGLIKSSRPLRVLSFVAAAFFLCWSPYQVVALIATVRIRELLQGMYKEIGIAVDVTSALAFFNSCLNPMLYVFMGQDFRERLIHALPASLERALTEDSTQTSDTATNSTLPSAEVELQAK

[19] = molecular target: T10, Tyrosine-protein phosphatase non-receptor type 7 (Homo sapiens, UniProt P35236); test: HePTP tyrosine phosphatase activity blockers – biochemical, absorbance, leukemia target, primary screen (AID 521); type: functional
T10 sequence (P35236 whole entry): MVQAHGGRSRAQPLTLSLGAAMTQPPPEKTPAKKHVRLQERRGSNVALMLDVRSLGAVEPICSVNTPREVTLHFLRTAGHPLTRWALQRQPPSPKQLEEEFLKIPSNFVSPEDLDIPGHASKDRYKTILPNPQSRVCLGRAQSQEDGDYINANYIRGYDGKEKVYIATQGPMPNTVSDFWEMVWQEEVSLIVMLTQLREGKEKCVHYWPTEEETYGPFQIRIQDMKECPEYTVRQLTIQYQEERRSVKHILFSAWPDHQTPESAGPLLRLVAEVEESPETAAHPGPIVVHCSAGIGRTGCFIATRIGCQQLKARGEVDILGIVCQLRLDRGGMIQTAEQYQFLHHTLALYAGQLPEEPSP

T5 sequence (P65502 whole entry): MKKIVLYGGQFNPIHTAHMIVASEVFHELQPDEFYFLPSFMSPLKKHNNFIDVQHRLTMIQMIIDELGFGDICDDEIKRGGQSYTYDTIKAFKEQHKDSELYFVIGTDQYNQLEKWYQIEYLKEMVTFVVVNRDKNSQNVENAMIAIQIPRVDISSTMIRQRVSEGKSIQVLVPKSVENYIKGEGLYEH
T1 sequence (P78536 whole entry, the tested form may be a part): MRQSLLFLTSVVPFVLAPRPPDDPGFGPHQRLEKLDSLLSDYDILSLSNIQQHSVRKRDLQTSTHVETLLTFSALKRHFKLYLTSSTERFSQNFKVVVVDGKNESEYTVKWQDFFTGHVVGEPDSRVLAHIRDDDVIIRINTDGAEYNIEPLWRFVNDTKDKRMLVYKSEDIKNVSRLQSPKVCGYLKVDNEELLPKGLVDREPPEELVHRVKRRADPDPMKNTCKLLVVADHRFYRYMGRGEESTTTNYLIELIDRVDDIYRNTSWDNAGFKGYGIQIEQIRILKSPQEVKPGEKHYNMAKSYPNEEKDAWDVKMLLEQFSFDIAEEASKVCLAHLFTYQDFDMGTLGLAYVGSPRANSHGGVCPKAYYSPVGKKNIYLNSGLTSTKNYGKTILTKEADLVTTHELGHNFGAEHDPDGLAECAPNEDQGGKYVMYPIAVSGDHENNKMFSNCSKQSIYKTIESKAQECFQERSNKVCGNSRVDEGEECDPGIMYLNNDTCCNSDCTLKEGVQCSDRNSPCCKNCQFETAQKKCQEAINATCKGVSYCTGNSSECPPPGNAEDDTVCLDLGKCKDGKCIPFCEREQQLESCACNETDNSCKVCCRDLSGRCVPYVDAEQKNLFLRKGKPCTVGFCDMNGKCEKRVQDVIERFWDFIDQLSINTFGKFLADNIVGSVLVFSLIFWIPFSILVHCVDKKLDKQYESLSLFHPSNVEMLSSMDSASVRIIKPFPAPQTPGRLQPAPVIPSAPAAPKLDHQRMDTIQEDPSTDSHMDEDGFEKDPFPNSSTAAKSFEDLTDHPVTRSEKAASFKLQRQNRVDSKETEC
Chain of NAD-dependent protein deacylase sirtuin-5, mitochondrial (Q9NXA8 whole entry): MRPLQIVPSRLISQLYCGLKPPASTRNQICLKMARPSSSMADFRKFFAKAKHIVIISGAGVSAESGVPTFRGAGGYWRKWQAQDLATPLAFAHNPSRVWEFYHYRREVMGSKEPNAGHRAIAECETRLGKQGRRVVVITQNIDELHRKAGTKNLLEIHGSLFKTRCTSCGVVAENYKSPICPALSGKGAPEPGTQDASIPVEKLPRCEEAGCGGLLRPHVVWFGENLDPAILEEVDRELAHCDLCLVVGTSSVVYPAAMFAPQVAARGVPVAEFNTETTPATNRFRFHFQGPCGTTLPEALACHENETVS
T7 sequence (Q79MP6 whole entry): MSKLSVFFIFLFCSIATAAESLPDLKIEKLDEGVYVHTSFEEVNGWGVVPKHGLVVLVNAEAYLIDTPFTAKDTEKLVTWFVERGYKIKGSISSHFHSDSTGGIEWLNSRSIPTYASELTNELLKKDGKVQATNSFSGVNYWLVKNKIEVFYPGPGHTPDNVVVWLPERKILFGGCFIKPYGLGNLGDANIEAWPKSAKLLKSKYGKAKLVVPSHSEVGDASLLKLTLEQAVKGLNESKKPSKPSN
Chain of Beta-lactamase (Salmonella choleraesuis (strain SC-B67), UniProt Q5J463) (Q5J463 whole entry): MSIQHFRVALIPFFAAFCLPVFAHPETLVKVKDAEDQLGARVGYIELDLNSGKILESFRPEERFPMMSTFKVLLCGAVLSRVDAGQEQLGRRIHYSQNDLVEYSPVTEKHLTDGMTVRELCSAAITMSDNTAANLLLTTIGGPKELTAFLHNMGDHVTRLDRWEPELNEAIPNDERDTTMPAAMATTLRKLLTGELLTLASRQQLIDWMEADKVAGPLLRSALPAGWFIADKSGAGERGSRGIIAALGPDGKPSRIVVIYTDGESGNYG

## Cc1ccccc1NC(=NOCc1ccc(Cl)cc1Cl)c1nonc1N
[1]
  IC50: > 69.5 µM (inactive)

## CC(C)NC(=O)c1cccc(Br)c1
[2]
  AC50: > 30 µM (inactive)

## COc1cccc(C(=O)NNC(=O)C(=O)Nc2ccc(C)c(Cl)c2)c1
[1]
  IC50: > 69.5 µM (inactive)
[3]
  IC50: 8.71 µM (active)

## COc1ccc(C(=O)C2=C(O)C(=O)N(CCCN3CCOCC3)C2c2ccc(OC)cc2)cc1 (stereo not given)
[2]
  AC50: > 30 µM (inactive)

## COc1ccc(S[C@@H](CCN2CC[C@H](C)CCC2=O)c2ccccc2)cc1
[4]
  IC50: > 69.5 µM (inactive)
[5]
  IC50: 19.3 µM (inactive)

## COC(=O)[C@]12C[C@H](CC(=O)NCCCCc3ccccc3)C(=O)N(Cc3cccc4ccccc34)C1=C[C@H](C(C)C)O[C@@H]2C1CC1
[4]
  IC50: > 69.5 µM (inactive)
[5]
  IC50: > 7.72 µM (active)

## CN(C)/C=N/c1nc2nccc(-c3cccc(Cl)c3)n2n1
[6]
  IC50: 1.15 µM (active)

## CCCCC1=CC2=CC(=O)C(C)(OC(=O)CCc3ccccc3)C(=O)C2=CO1 (stereo not given)
[7]
  EC50: > 150 µM (not active)
[8]
  EC50: 41.6 µM (active)
[9]
  IC50: 19.8 µM (active)
[10]
  IC50: 8.81 µM (active)

## O=C(/C=C/c1ccc([N+](=O)[O-])cc1)c1ccccc(=O)c1O
Vero
  CC50: 1.87 µM (active)
[1]
  IC50: 11.8 µM (inactive)
[11]
  AC50: 1.54 µM (active)
[12]
  IC50: 9.51 µM (active)
[3]
  IC50: 8.35 µM (active)

## N#C[C@H]1N[C@H](CO)[C@H]1c1ccc(C#CC2CCCCC2)cc1
[13]
  AC50: 12.9 µM (active)

## Cc1ccccc1N=C(NOCc1ccc(Cl)cc1Cl)c1nonc1N
[14]
  AC50: 3.53 µM (active)
[3]
  IC50: 13.3 µM (inactive)

## CCOC(=O)COc1ccc2c(c1)C(=O)CC(C)(C)O2
[6]
  IC50: 1.55 µM (active)

## Cc1cc(C)n(-c2nc(SCC(=O)O)c3c4c(sc3n2)COC(C)(C)C4)n1
Beta-lactamase [15]
  IC50: > 59.6 µM (inactive)
Streptokinase A
  EC50: > 150 µM (not active)
Beta-lactamase [16]
  IC50: > 59.6 µM (inactive)
Beta-lactamase [17]
  IC50: > 59.6 µM (inactive)
[18]
  EC50: 8.1 µM (active)
Streptococcus
  EC50: > 150 µM (not active)

## O=[N+]([O-])c1ccc(-c2ccccc2)c([As](=O)(O)O)c1
Beta-lactamase [15]
  IC50: > 59.6 µM (inactive)
Beta-lactamase [16]
  IC50: > 59.6 µM (inactive)
Beta-lactamase [17]
  IC50: > 59.6 µM (inactive)

## Cc1cccc(Nc2ccccc2C(=O)NCc2ccco2)c1C
fMet-Leu-Phe receptor
  Ki: > 66.7 µM (inactive)

## O=S(=O)(Nc1nccs1)c1ccc(Nc2nnc(-c3ccccc3)c3ccccc23)cc1
[9]
  IC50: 29.2 µM (active)
[10]
  IC50: 5.9 µM (active)
[18]
  EC50: 1.06 µM (active)
Streptococcus
  EC50: 3.67 µM (active)

## C[C@H]1CCCCO[C@@H](CN(C)S(=O)(=O)c2ccc(F)cc2)[C@@H](C)CN([C@@H](C)CO)C(=O)c2cc(N(C)C)ccc2O1
[13]
  AC50: 2.54 µM (active)

## CC(C)(C)OC(=O)N1CCC[C@H]1c1nnc(SCc2cccc(Cl)c2)o1
[2]
  AC50: > 30 µM (inactive)

## CC1(C)CC(=O)c2cnc(NC(=O)c3ccco3)nc2C1
[19]
  IC50: > 100 µM (not active)

— ChEMBL document CHEMBL1201862, “PubChem BioAssay data set” (2004)
